# Patent US6448011B1, “DNA encoding human alpha 1 adrenergic receptors and uses thereof” (Synaptic Pharmaceutical Corporation, priority 1992, dated 2002)
# Counter-ions that a name gives are not always drawn.
# Target: T1, α1c receptor (Bos taurus, UniProt P18130)
# T1 sequence (P18130 1-466): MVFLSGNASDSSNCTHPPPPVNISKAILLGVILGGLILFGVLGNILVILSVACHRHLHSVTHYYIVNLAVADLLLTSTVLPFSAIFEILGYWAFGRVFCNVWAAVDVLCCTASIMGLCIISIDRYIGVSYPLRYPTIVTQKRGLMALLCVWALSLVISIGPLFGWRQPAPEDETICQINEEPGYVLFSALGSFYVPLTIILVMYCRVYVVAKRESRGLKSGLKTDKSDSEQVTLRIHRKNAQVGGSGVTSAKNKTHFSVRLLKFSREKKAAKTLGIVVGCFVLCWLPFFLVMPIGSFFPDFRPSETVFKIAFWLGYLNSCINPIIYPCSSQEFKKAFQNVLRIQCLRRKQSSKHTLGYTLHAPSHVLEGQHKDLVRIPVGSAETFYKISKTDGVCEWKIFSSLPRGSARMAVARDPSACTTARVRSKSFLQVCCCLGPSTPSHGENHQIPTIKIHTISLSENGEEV
# Assay: not given
# Conditions: expressed α1c receptor; cited from earlier work
row,Compound,fold higher affinity than the α1b-receptor
1,Cc1ccc(N(CC2=NCCN2)c2cccc(O)c2)cc1 [phentolamine],30 fold

# Test system: human prostate tissue
# Assay: Inhibition of phenylephrine-induced contraction of human prostate tissue strips
# Conditions: dose-ratio method
# Method: Methods: Prostatic adenomas were obtained at the time of surgery from patients with symptomatic BPH. These were cut into longitudinal strips of 15 mm long and 2-4 mm wide, and suspended in 5 ml organ baths containing Krebs buffer (pH 7.4). The baths were maintained at 37° C. and continuously oxygenated with 5% CO2 and 95% O2. Isometric tension was measured with a Grass Instrument FT03 force transducer interfaced with a computer.
# Tissue strips were contracted with varying concentrations of phenylephrine after incubating for 20 minutes in the absence and presence of at least three different concentrations of antagonist. Dose-response curves for phenylephrine were constructed, and the antagonist potency (pA2) was estimated by the dose-ratio method. […] This control was necessary to account for losses of antagonist due to adsorption to the tissue bath and/or metabolism during the time the antagonists were equilibrated with the prostate tissue.
row,Compound,Human Prostate (pA)
1,"4-fluoro-4-(8-fluoro-1,3,4,5-tetrahydro-2H-pyrido[4,3-b]indol-2-yl)butyrophenone hydrochloride [Compound A-30360]",8.72
2,"COc1ccccc1N1CCN(CCCNc2c(C)c(=O)n(C)c(=O)n2C)CC1 [5-Methyl Urapidil, 5-methylurapidil]",8.38
3,"O=C(CCCN1CCC(NC(=O)c2ccccc2)CC1)c1ccc(Cl)cc1 [Compound 7, 1-[3-(4-chlorobenzoyl)propyl]-4-benzamidopiperidine]",7.63
4,"O=C(CCCN1CCC(NC(=O)c2ccccc2)CC1)c1ccccc1 [Compound 9, 1-(3-benzoylpropyl)-4-benzamidopiperidine]",7.41
5,O=C(NC1CCN(CCc2c[nH]c3ccccc23)CC1)c1ccccc1 [Indoramin],7.86
6,COc1cc2nc(N3CCN(C(=O)c4ccco4)CC3)nc(N)c2cc1OC [Prazosin],9.08
7,"C=Cc1sc2ccc(Cl)c3c2c1CN(C)CC3 [SKF-104856, 7-Chloro-2-ethenyl-3,4,5,6-tetrahdyro-4-methylthieno[4,3,2-ef][3]benzazepine]",7.66
8,"COc1cc2nc(N3CCN(C(=O)C4CCCO4)CC3)nc(N)c2cc1OC (stereo not shown) [Terazosin, 2[4-(Tetrahydro-2-furoyl)piperazinyl]-4-amino-6,7-dimethoxyquinazoline hydrochloride]",7.30

# Test system: not given
# Assay: not given
# Conditions: not given
row,melting point,Compound
1,243 to 244 °C,"O=C(CCCN1CCC(NC(=O)c2ccccc2)CC1)c1ccc(Cl)cc1 (as salt: HCl) [Compound 7, 1-[3-(4-chlorobenzoyl)propyl]-4-benzamidopiperidine]"
